According to patent publication EP2439195B1, “NAPHTHALENE CARBOXAMIDE DERIVATIVES AS INHIBITORS OF PROTEIN KINASE AND HISTONE DEACETYLASE, PREPARATION METHODS AND USES THEREOF” (Shenzhen Chipscreen Biosciences, Ltd., priority 2009, dated 2010):

Tests used:
Format in all cases: in vivo
human A549 lung cancer = assay: Nude mice tumor transplanted from human A549 lung cancer (Example 51); details: for TGI (%): tumor growth inhibition
Protocol: Then the cultured A549 human lung cancer cells were implanted into the armpit of 50 mice. […] Each group had 8 mice. One group was treated with vehicle. One group was treated with Sutent, the positive control drug. […] Each group was dosed orally once a day for 24 days. Tumor volumes along with body weights were recorded twice per week. On the next day after 24 doses, the mice were killed, and tumors were weighed. The tumor growth inhibition of each group was calculated using the following formula: {[(the average tumor weight of control group)-(the average tumor weight of test group)]/(the average tumor weight of control group)}×100%.

[1] = test system: SSMC7721 human liver cancer cells; assay: Nude mice tumor transplanted from human SSMC7721 liver cancer (Example 53); details: for TGI (%): tumor growth inhibition
Protocol: Female nu/nu mice of 18∼20g were fed by normal diet for 3 days. Then the cultured SSMC7721 human liver cancer cells were implanted into the armpit of 50 mice. […] One group was treated with vehicle. One group was treated with Sutent, the positive control drug. […] Each group was dosed orally once a day for 24 days. […] The tumor growth inhibition of each group was calculated using the following formula: {[([…])} × 100%. [formula] The experimental results are shown in Table 7 and Figure 3.

human HCT-8 colon cancer [2] = assay: Nude mice tumor transplanted from human HCT-8 colon cancer (Example 52); details: for Tumor weight: killed after 20 doses; for TGI (%): tumor growth inhibition
Protocol: Female nu/nu mice of 18∼20g were fed by normal diet for 3 days. Then the cultured HCT-8 human colon cancer cells were implanted into the armpit of 50 mice. […] Each group had 8 mice. One group was treated with vehicle. One group was treated with Sutent, the positive control drug. […] Each group was dosed orally once a day for 24 days. Tumor volumes along with body weights were recorded twice per week. On the next day after 20 doses, the mice were killed, and tumors were weighed. The tumor growth inhibition of each group was calculated using the following formula: {[([…])} × 100%. [formula] The experimental results are shown in Table 6 and Figure 2.

human HCT-8 colon cancer [3] = assay: Nude mice tumor transplanted from human HCT-8 colon cancer (Example 54); details: for TGI (%): tumor growth inhibition
Protocol: (§1) Female nu/nu mice of 18∼20g were fed by normal diet for 3 days. Then the cultured HCT-8 human colon cancer cells were implanted into the armpit of 50 mice. […] Each group had 8 mice. One group was treated with vehicle. One group was treated with Sutent, the positive control drug. Two groups were treated with compound 33 at different concentrations. The other two groups were treated with compound 34 at different concentrations. Each group was dosed orally once a day for 20 days. […] The tumor growth inhibition of each group was calculated using the following formula: {[(the average tumor weight of control group)-(the average tumor weight of test group)]/(the average tumor weight of control group)} × 100%. [formula] The experimental results are shown in Table 8 and Figure 4.

[4] = test system: human SSMC7721 liver cancer; assay: Nude mice tumor transplanted from human SSMC7721 liver cancer (Example 56); details: for TGI (%): tumor growth inhibition
Protocol: as §1, with “cultured SSMC7721” for “cultured HCT-8”, “human liver” for “human colon”, “compound 37” for “compound 34”, “for 30” for “for 20”, “Table 10” for “Table 8”, “Figure 6. Table10” for “Figure 4.”

human HCT-8 colon cancer [5] = assay: Nude mice tumor transplanted from human HCT-8 colon cancer (Example 55); details: 20 days; for TGI (%): tumor growth inhibition
Protocol: Female nu/nu mice of 18∼20g were fed by normal diet for 3 days. Then the cultured HCT-8 human colon cancer cells were implanted into the armpit of 50 mice. […] One group was treated with vehicle. One group was treated with Sutent, the positive control drug. Two groups were treated with compound 33 at different concentrations. The other two groups were treated with compound 37 at different concentrations. Compound 33 was administered twice a day with an interval of 6 hours. For other groups, administration was performed once a day. Each group was dosed orally for 20 days. […] The tumor growth inhibition of each group was calculated using the following formula: {[(the average tumor weight of control group)-(the average tumor weight of test group)]/(the average tumor weight of control group)} × 100%. [formula] The experimental results are shown in Table 9 and Figure 5.

[6] = 5 mg/kg orally once a day for 24 days
[7] = 10 mg/kg orally once a day for 24 days
[8] = 20 mg/kg orally once a day for 24 days
[9] = 40 mg/kg orally once a day for 24 days
[10] = 2.5 mg/kg orally once a day for 24 days
[11] = 30 mg/kg orally once a day for 20 days
[12] = 60 mg/kg orally once a day for 20 days
[13] = 30 mg/kg orally once a day for 30 days
[14] = 60 mg/kg orally once a day for 30 days
[15] = 30x2 mg/kg orally twice a day with an interval of 6 hours
[16] = 60x2 mg/kg orally twice a day with an interval of 6 hours

In the case of `COc1ccc2c(Oc3ccc4c(C(=O)Nc5ccccc5N)cccc4c3)ccnc2c1` [Compound 31, N-(2-aminophenyl)-6-(7-methoxyquinolin-4-yloxy)-1-naphthamide], the “Tumor weight” value (human A549 lung cancer; [6]) is reported as 2.20 ± 0.57 g, the “Body weight (g) end” value (human A549 lung cancer; [6]) is reported as 24.6 ± 1.3 g and the “Body weight (g) start” value (human A549 lung cancer; [6]) is reported as 21.1 ± 0.6 g. For the same molecule, the “Tumor weight” value (human A549 lung cancer; [7]) was 2.13 ± 0.51 g, the “Body weight (g) end” value (human A549 lung cancer; [7]) was 25.1 ± 1.3 g and the “Body weight (g) start” value (human A549 lung cancer; [7]) was 19.9 ± 1.3 g. The “Tumor weight” value (human A549 lung cancer; [8]) was 1.50 ± 0.41 g, the “Body weight (g) end” value (human A549 lung cancer; [8]) was 24.2 ± 0.7 g and the “Body weight (g) start” value (human A549 lung cancer; [8]) was 20.6 ± 1.1 g. For the same molecule, the “TGI (%)” value (human A549 lung cancer; [8]) was 64.3%, the “Tumor weight” value (human A549 lung cancer; [9]) was 1.06 ± 0.54 g and the “Body weight (g) end” value (human A549 lung cancer; [9]) was 22.6 ± 2.4 g. The “Body weight (g) start” value (human A549 lung cancer; [9]) was 20.0 ± 0.9 g, the “TGI (%)” value (human A549 lung cancer; [9]) was 74.8% and the “Tumor weight” value [1, 10] was 1.63 ± 0.70 g. The “Body weight (g) end” value [1, 10] was 23.2 ± 2.1 g, the “Body weight (g) start” value [1, 10] was 20.1 ± 0.9 g and the “TGI (%)” value [1, 10] was 51.7%. For the same molecule, the “Tumor weight” value [1, 6] was 1.16 ± 0.55 g, the “Body weight (g) end” value [1, 6] was 24.8 ± 1.5 g and the “Body weight (g) start” value [1, 6] was 20.8 ± 1.2 g. The “TGI (%)” value [1, 6] was 65.4%, the “Tumor weight” value [1, 7] was 0.70 ± 0.45 g and the “Body weight (g) end” value [1, 7] was 23.6 ± 1.5 g. The “Body weight (g) start” value [1, 7] was 20.4 ± 1.6 g, the “TGI (%)” value [1, 7] was 79.2% and the “Tumor weight” value [1, 8] was 0.53 ± 0.28 g. For the same molecule, the “Body weight (g) end” value [1, 8] was 21.0 ± 2.2 g, the “Body weight (g) start” value [1, 8] was 20.2 ± 1.7 g and the “TGI (%)” value [1, 8] was 84.4%. The “Body weight (g) end” value (human HCT-8 colon cancer [2]; 2.5 mg/kg orally once a day) was 24.5 ± 1.1 g, the “Tumor weight” value (human HCT-8 colon cancer [2]; 2.5 mg/kg orally once a day) was 2.18 ± 1.28 g and the “Body weight (g) start” value (human HCT-8 colon cancer [2]; 2.5 mg/kg orally once a day) was 20.3 ± 0.8 g. The “TGI (%)” value (human HCT-8 colon cancer [2]; 2.5 mg/kg orally once a day) was 54.5%, the “Body weight (g) end” value (human HCT-8 colon cancer [2]; 5 mg/kg orally once a day) was 24.8 ± 1.5 g and the “Tumor weight” value (human HCT-8 colon cancer [2]; 5 mg/kg orally once a day) was 0.78 ± 0.25 g. For the same molecule, the “Body weight (g) start” value (human HCT-8 colon cancer [2]; 5 mg/kg orally once a day) was 21.6 ± 1.4 g, the “TGI (%)” value (human HCT-8 colon cancer [2]; 5 mg/kg orally once a day) was 83.8% and the “Body weight (g) end” value (human HCT-8 colon cancer [2]; 10 mg/kg orally once a day) was 23.7 ± 0.8 g. For the same molecule, the “Tumor weight” value (human HCT-8 colon cancer [2]; 10 mg/kg orally once a day) was 0.46 ± 0.15 g, the “Body weight (g) start” value (human HCT-8 colon cancer [2]; 10 mg/kg orally once a day) was 20.7 ± 1.1 g and the “TGI (%)” value (human HCT-8 colon cancer [2]; 10 mg/kg orally once a day) was 90.3%. The “Body weight (g) end” value (human HCT-8 colon cancer [2]; 20 mg/kg orally once a day) was 22.5 ± 1.6 g, the “Tumor weight” value (human HCT-8 colon cancer [2]; 20 mg/kg orally once a day) was 0.19 ± 0.06 g and the “Body weight (g) start” value (human HCT-8 colon cancer [2]; 20 mg/kg orally once a day) was 20.5 ± 1.3 g. The “TGI (%)” value (human HCT-8 colon cancer [2]; 20 mg/kg orally once a day) was 96.1%.
For `COc1ccc2c(Oc3ccc4c(C(=O)NCc5ccc(C(=O)Nc6ccccc6N)cc5)cccc4c3)ccnc2c1` [Compound 33, N-(4-((2-aminophenyl)carbamoyl)benzyl)-6-(7-methoxyquinolin-4-yloxy)-1-naphthamide], the “Tumor weight” value (human HCT-8 colon cancer [3]; [11]) was 2.31 ± 0.43 g, the “Body weight (g) end” value (human HCT-8 colon cancer [3]; [11]) was 21.1 ± 2.2 g and the “Body weight (g) start” value (human HCT-8 colon cancer [3]; [11]) was 19.0 ± 1.3 g. For the same molecule, the “TGI (%)” value (human HCT-8 colon cancer [3]; [11]) was 43.3%, the “Tumor weight” value (human HCT-8 colon cancer [3]; [12]) was 1.98 ± 0.61 g and the “Body weight (g) end” value (human HCT-8 colon cancer [3]; [12]) was 21.4 ± 1.5 g. The “Body weight (g) start” value (human HCT-8 colon cancer [3]; [12]) was 19.4 ± 0.8 g, the “TGI (%)” value (human HCT-8 colon cancer [3]; [12]) was 51.5% and the “Tumor weight” value [4, 13] was 1.63 ± 0.47 g. For the same molecule, the “Body weight (g) end” value [4, 13] was 24.0 ± 1.7 g, the “Body weight (g) start” value [4, 13] was 20.8 ± 0.5 g and the “TGI (%)” value [4, 13] was 27.8%. The “Tumor weight” value [4, 14] was 1.48 ± 0.89 g, the “Body weight (g) end” value [4, 14] was 25.4 ± 2.8 g and the “Body weight (g) start” value [4, 14] was 21.4 ± 1.3 g. For the same molecule, the “TGI (%)” value [4, 14] was 34.4%, the “Tumor weight” value (human HCT-8 colon cancer [5]; [15]) was 0.73 ± 0.36 g and the “Body weight (g) end” value (human HCT-8 colon cancer [5]; [15]) was 22.6 ± 1.6 g. For the same molecule, the “Body weight (g) start” value (human HCT-8 colon cancer [5]; [15]) was 21.1 ± 1.2 g, the “TGI (%)” value (human HCT-8 colon cancer [5]; [15]) was 88.1% and the “Tumor weight” value (human HCT-8 colon cancer [5]; [16]) was 0.45 ± 0.05 g. The “Body weight (g) end” value (human HCT-8 colon cancer [5]; [16]) was 19.0 ± 1.8 g, the “Body weight (g) start” value (human HCT-8 colon cancer [5]; [16]) was 20.1 ± 0.9 g and the “TGI (%)” value (human HCT-8 colon cancer [5]; [16]) was 92.6%.
